Results: article PMC9138790 (2022)

Tested on: polyA (polyadenine) (DNA, polymer) A
Experiment: differential pulse voltammetry, dAdo oxidation signal decrease
Conditions: 0.1 M acetate buffer pH 4.7; 10 µg/mL CIN, 20 min; dAdo signal falls to S% 50

## C[C@@H](NCCCc1cccc(C(F)(F)F)c1)c1cccc2ccccc12
  binding: yes
